From article PMC9532951, “Identification and characterization of a novel SNAT2 (SLC38A2) inhibitor reveals synergy with glucose transport inhibition in cancer cells” (Frontiers in Pharmacology, 2022)
Where “and” joins values, the source holds several entries; their conditions need not be identical. Identical values can stand only once.

Tests used:
Type in all cases: cell-based, human
[1] = test system: SNAT1/2; test: [14C]glutamine uptake in HCC1806 cells
Experimental: Functional characterisation of plasma membrane transporters in human cancer cells was determined at 37°C using an array of radiolabelled amino acid substrates. Modified Hanks HEPES-buffered salts solution (mHBSS; 137 mM NaCl; 5.4 mM KCl; 2.7 mM K2HPO4; 1 mM CaCl2; 0.5 mM MgCl2; 0.44 mM KH2PO4; 0.4 mM MgSO4; 5 mM D-glucose; 5 mM HEPES; pH 7.4) was used to wash and incubate cells where sodium dependent transport was measured, while N-methyl-D-glucamine (NMDG) and potassium salts substituted sodium in NMDG mHBSS to measure sodium independent uptake. For the assay, cells were seeded in 35 mm dishes and, once confluent, were washed thrice with warm mHBSS solution and incubated with mHBSS containing an 100 µM amino acid at a final specific activity of ≥2000 cpm/nmol (U-[^14C]amino acids were from PerkinElmer). After 6 min, cells were washed thrice with ice-cold mHBSS, lysed with 500 µl of 0.1 M HCl, detached with a cell scraper and triturated. A 400 µl aliquot was used for scintillation counting, while the remainder was saved for protein mass quantification by Bradford assay. Transport rates were normalised to the protein content of the culture dish.

[2] = test system: SNAT1 and SNAT2; test: High-throughput compound screen, FMP assay in 384-well format (primary, confirmatory, control compounds)
Experimental: For the high-throughput compound screen, the FMP assay was adapted into a 384-well format within the ANU Centre for Therapeutic Discovery. […] Compounds Australia stores compounds under robust environmental conditions and supplies them in assay ready plate format. We screened 33,934 compounds from the Collection Scaffold Library. Cells (10,000/well) were seeded into Corning 384-well black walled plates (CLS3985; Sigma-Aldrich) using a Multidrop Combi liquid dispensing robot (Thermo Fisher) in a 40 µl volume. Once seeded, cells were allowed to grow in a microplate incubator (Liconic) for 24 h at 37°C (humidified atmosphere with 95% air and 5% CO2). Subsequently, plates were washed thrice with 50 µL of mHBSS using a 405 TS washer (BioTek). Then, 50 µl of starvation medium was added and cells were incubated again for 24 h.
Assay-ready compound plates (384 well plates containing compound or DMSO controls) were then prepared prior to addition to cells. In addition to the supplied compounds, 5 µl γ-glutamyl-hydroxamate (GHX, 60 mM dissolved in mHBSS, serving as an inhibitor control) was added into inhibitor control wells using a JANUS G3 robot (PerkinElmer). Subsequently, 25 uL of mHBSS was dispensed into all wells of the 384 well plate using a Multidrop Combi. All samples were then mixed using the JANUS G3 robot and 15 µl dispensed on top of the cell monolayer to reach a final concentration of 10.05 µM.
The FMP dye was solved freshly with mHBSS, 20 µl of which was deposited into each well using the Multidrop Combi, and the cells were incubated at room temperatur for 30 min. Each plate was then placed in an EnVision microplate reader (PerkinElmer) and a single baseline measurement was taken for each well (bottom reads excitation at 531, emission at 579 nm). The plate was then transferred to the Multidrop Combi and 10 µl/well of 5 mM glutamine was dispensed into each well. After linearly shaking for 5 s, microplates were returned to the EnVision microplate reader for a single post-injection measurement per well. The change of fluorescence was measured after 60 s.
Z′ scores were calculated from the controls onboard each of the 384-well plates assayed in the primary and secondary screen as described by Zhang et al., ([Zhang et al., 1999]). For the control inhibitor γ-glutamyl-hydroxamate (GHX) a Z’ score of 0.717 was determined, which was a sufficient signal for a HTS.

[3] = test system: SNAT1 and SNAT2; test: FMP assay in HCC1806 clones C10 (ASCT2ko) and D126 (ASCT2ko, SNAT2ko)
Experimental: To delete the SNAT2 (SLC38A2) gene in modified HCC1806 cells (clone C10 nullizygous for ASCT2 ([Broer et al., 2019])), the GeneArt CRISPR Nuclease Vector with OFP Reporter Kit (Invitrogen; A21174) was employed and complementary 19–20 bp long single-stranded oligonucleotides with overhangs were designed to produce a guide RNA (gRNA) for the Cas9 nuclease that would target exon 7 of the SNAT2 gene. Colonies were analysed by sequencing using the U6 primer included in the GeneArt CRISPR Nuclease Vector with OFP Reporter kit. Plasmids that contained the correct CRISPR nuclease construct were then used to transfect HCC1806 cells with Lipofectamine 2000 (Invitrogen). Prior to transfection, medium was replaced with 2 ml of fresh DMEM/F-12 (supplemented with 10% heat-inactivated FBS and 2 mM glutamine). Plasmid DNA (4 µg) and 10 µL of Lipofectamine 2000 were incubated separately for 5 min at room temperature in 500 µl of Opti-MEM (Invitrogen) before being combined and incubated for a further 30 min at room temperature. The DNA-Lipofectamine complex was then added to the cells in a dropwise manner and allowed to be absorbed over 6 h at 37°C, after which the medium was renewed with fresh DMEM/F-12. Cells were checked for red fluorescence using an EVOS FL cell imaging system (Thermo Fisher Scientific) 48–72 h post transfection. Subsequently, cells were detached using 0.25% Trypsin EDTA. After harvesting and washing thrice with PBS (pH 7.4), cells were resuspended in PBS (pH 7.4) supplemented with 5 mM glucose and 1% dialysed and heat inactivated FBS and passed through a 100 μm cell strainer. The cell filtrate was then pelleted once more and resuspended in the same buffer. Cells were sorted using an ARIA II FACS machine and individually dispensed into the wells of a 96-well plate. Nullizygous clones were identified using a series of assays including the FLIPR membrane potential assay, western blotting and sequencing.
The FLIPR Membrane Potential Blue Explorer Kit (Molecular Devices) was used to characterise inhibitors and to optimise a high-throughput compound screen. Cells were seeded at approximately 60,000 cells/well on a 96-well plate and allowed to attach and grow overnight in a cell incubator. The next day, the cells were washed once with mHBSS and incubated in a starvation medium (composed of mHBSS with 1% dialysed heat-inactivated FBS, 23 mM NaHCO3, 10 U/ml penicillin and 10 μg/ml streptomycin) for 24 h. Cells were then washed once with mHBSS and incubated with 50 µl of the mHBSS-resuspended FMP assay dye and 50 µl of mHBSS (with or without inhibitors) and incubated at room temperature for 30 min. The plate was then placed in an EnSpire Multimode plate reader (PerkinElmer) and four sequential measurements of fluorescence were recorded as a baseline reference. Immediately after the baseline measurements were taken, 25 µl of 5 mM glutamine dissolved in mHBSS was injected into each well and the plate was shaken orbitally for 5 s before a series of consecutive fluorescence measurements were taken. The excitation wavelength was set to 530 nm and the emission was detected at 565 nm. The Δ fluorescent signal reported in the figures was taken 30 s after substrate addition. After the assay was complete, the liquid content of the plate was carefully removed, and the cell monolayer inspected to ensure it remained intact throughout the course of the assay.

C[N+](C)(C)CC(=O)O [Betaine, betaine]
Glutamine uptake ([1]; AA+ (growth medium), 100 µM glutamine, replicates 1-3): 37.8707 nmol / mg protein x 6 min and 45.7014 nmol / mg protein x 6 min and 38.6268 nmol / mg protein x 6 min | Glutamine uptake ([1]; AA- (starvation medium 24 h), 100 µM glutamine, replicates 1-3): 13.5306 nmol / mg protein x 6 min and 16.7838 nmol / mg protein x 6 min and 15.0446 nmol / mg protein x 6 min | reduction of glutamine uptake ([1]; amino acid depleted HCC1806 cells (24 h), 100 µM glutamine): 46%

Cc1ccc(S(=O)(=O)N(C)c2ccsc2C(=O)NCc2ccccc2C(F)(F)F)cc1 [Compound 57_E, 3-(N-methyl (4-methylphenyl)sulfonamido)-N-(2-trifluoromethylbenzyl)thiophene-2-carboxamide]
inhibition of 100 µM glutamine uptake ([1]; 50 µM inhibitor, HCC1806 after 24 h amino acid depletion): inhibited a significant fraction of the MeAIB-sensitive component of glutamine uptake | Glutamine uptake (nmol / mg protein x 6 min) ([1]; Figure 3D, replicates 1-3): 46.6677 nmol / mg protein x 6 min and 48.4796 nmol / mg protein x 6 min and 48.0528 nmol / mg protein x 6 min | % (delta) Fluorescence Signal ([2]; Figure 3A, ranked hits of the high-throughput screen, FMP assay): 58.6322%

N[C@@H](CCC(=O)NO)C(=O)O [GHX, L-glutamic acid γ-monohydroxamate]
reduction of FMP signal ([2]; 6 mM, 1 mM glutamine): 92% | block of glutamine (1 mM) FMP signal ([3]; C10 cells): fully blocked | FMP fluorescence ([3]; C10 cells, time 0, replicates 1-10): 22566 and 24924 and 25754 and 31415 and 31062 and 25958 and 24037 and 24199 and 31861 and 22458 | FMP fluorescence ([3]; C10 cells, time 30, replicates 1-10): 22979 and 25257 and 24877 and 31065 and 30653 and 25037 and 22964 and 23247 and 31019 and 21524 | FMP fluorescence ([3]; C10 cells, time 40, replicates 1-10): 22836 and 25183 and 25086 and 31077 and 30677 and 25349 and 23314 and 23279 and 31141 and 21715 | FMP fluorescence ([3]; C10 cells, time 50, replicates 1-10): 22729 and 25095 and 24771 and 30889 and 30642 and 25022 and 23105 and 23276 and 31320 and 21555 | FMP fluorescence ([3]; C10 cells, time 60, replicates 1-10): 22771 and 25085 and 24871 and 30919 and 30705 and 25319 and 23018 and 23144 and 31224 and 21790 | FMP fluorescence ([3]; C10 cells, time 70, replicates 1-10): 22546 and 24933 and 24936 and 30890 and 30628 and 25268 and 22856 and 23122 and 31403 and 21489 | FMP fluorescence ([3]; C10 cells, time 80, replicates 1-10): 22447 and 25159 and 24725 and 30733 and 30614 and 25267 and 22687 and 23011 and 31397 and 21490 | FMP fluorescence ([3]; C10 cells, time 90, replicates 1-10): 22259 and 25131 and 24741 and 30924 and 30357 and 25175 and 22779 and 23104 and 30871 and 21284 | FMP fluorescence ([3]; C10 cells, time -10, replicates 1-10): 23300 and 25374 and 26077 and 32072 and 31514 and 26200 and 24526 and 24442 and 32334 and 22554 | FMP fluorescence ([3]; C10 cells, time -20, replicates 1-10): 23913 and 26637 and 26782 and 32769 and 33018 and 26873 and 25394 and 25312 and 33318 and 23095

NC(=O)CC[C@H](N)C(=O)O [Glutamine, glutamine]
FMP signal in D126 cells (ASCT2ko, SNAT2ko) compared to C10 ([3]; MeAIB 10 mM, glutamine 1 mM): 42%
